Among the data in ChEMBL document CHEMBL1201862, “PubChem BioAssay data set” (2004) are IC50, EC50 and AC50 values, retold here.

As usually defined, the AC50 is the concentration at which the activity in the assay is half-maximal.

Some targets named below: Cytochrome P450 2C9 (Homo sapiens, UniProt P11712); Cytochrome P450 2D6 (Homo sapiens, UniProt P10635); Cytochrome P450 3A4 (Homo sapiens, UniProt P08684).
Test [1] deals with T1, Corticotropin-releasing factor receptor 2/Corticotropin-releasing factor-binding protein (Homo sapiens, UniProt P24387+Q13324).
T1 sequence (Q13324 whole entry): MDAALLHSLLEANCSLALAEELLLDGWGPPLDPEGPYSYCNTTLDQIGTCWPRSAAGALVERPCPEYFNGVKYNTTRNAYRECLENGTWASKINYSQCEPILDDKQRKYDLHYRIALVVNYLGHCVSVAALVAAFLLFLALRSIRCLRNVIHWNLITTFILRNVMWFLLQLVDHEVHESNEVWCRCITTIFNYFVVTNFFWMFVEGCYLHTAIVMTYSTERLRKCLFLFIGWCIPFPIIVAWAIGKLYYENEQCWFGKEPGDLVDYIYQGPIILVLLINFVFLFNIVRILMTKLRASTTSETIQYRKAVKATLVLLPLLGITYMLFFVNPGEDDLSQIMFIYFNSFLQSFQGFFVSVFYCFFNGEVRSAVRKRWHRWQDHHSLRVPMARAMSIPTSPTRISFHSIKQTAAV
T1 sequence (P24387 whole entry): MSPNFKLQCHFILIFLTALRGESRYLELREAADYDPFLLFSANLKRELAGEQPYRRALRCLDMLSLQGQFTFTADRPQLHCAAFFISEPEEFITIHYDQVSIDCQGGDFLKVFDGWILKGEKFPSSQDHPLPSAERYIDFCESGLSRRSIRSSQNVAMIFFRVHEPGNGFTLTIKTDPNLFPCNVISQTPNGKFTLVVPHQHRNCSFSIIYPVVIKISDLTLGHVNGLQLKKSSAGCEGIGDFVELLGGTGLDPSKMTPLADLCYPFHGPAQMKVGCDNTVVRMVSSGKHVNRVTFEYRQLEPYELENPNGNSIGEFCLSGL
As to the kind of experiment: Dose Response confirmation of uHTS hits for small molecule antagonists of the CRF-binding protein and CRF-R2 receptor complex. The conditions noted are these: read-out: IC50_Mean. It counts as functional.

Test [2] concerns the target T1, Corticotropin-releasing factor receptor 2/Corticotropin-releasing factor-binding protein. Nature of the test: activators of CRF receptor 2 with binding protein – uHTS hits, confirmation (AID 602473). As to conditions: read-out: EC50_Mean. The class given is functional.
The nature of test [3]: cells. The class given is functional, cell-based.
A short description of test [4]: cells. The class given is functional, cell-based. This is another data set of the same source.
Another test deals with T2, Cytochrome P450 1A2 (Homo sapiens, UniProt P05177).
T2 sequence (P05177 whole entry): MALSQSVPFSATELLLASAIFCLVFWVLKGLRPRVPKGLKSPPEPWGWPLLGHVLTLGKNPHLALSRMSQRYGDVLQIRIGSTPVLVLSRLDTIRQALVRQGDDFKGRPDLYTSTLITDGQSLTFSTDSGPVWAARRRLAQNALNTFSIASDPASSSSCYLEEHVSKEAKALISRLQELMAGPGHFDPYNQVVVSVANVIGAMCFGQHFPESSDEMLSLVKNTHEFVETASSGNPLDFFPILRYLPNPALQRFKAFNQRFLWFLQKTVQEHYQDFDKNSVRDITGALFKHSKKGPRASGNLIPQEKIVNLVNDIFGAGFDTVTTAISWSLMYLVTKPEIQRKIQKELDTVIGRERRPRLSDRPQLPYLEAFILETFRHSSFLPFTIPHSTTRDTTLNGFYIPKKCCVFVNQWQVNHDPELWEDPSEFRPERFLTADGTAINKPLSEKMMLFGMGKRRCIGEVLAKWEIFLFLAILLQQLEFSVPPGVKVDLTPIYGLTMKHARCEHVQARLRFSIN

Test [5] has as its target T3, Ubiquitin-conjugating enzyme E2 N (Homo sapiens, UniProt P61088).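 Note: Dose-response confirmation in a TR-FRET assay detecting UBC13-driven polyubiquitin chain formation, inhibition measured.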
T3 sequence (P61088 whole entry): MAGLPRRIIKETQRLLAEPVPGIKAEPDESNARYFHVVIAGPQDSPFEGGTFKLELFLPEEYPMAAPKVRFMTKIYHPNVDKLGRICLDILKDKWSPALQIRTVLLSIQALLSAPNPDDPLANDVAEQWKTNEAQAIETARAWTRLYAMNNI
It counts as functional.

The target of another test is Cytochrome P450 2C19 (Homo sapiens, UniProt P33261). Nature of the test: Cytochrome panel assay with activity outcomes. Panel member name: p450-cyp2c19 Compounds with AC50 equal or less than 10 uM are considered active. The class given is functional. As to conditions: read-out: AC50.
Cytochrome P450 2C19, sequence (P33261 whole entry): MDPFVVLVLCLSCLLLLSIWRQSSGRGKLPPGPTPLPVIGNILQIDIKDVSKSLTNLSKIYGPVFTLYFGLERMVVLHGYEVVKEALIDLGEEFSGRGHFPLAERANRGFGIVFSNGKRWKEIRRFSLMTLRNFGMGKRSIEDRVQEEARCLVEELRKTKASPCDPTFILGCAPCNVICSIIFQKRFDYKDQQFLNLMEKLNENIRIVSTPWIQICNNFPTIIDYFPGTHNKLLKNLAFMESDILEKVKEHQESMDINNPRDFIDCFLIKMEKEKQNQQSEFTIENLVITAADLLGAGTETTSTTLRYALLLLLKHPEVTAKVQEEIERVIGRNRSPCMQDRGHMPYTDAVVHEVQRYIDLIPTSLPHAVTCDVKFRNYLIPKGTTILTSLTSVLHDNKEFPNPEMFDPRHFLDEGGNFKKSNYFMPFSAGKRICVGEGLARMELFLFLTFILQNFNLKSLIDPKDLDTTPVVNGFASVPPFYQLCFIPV
The target of test [6] is T4, Heat shock factor protein 1 (Mus musculus, UniProt P38532).
T4 sequence (P38532 whole entry): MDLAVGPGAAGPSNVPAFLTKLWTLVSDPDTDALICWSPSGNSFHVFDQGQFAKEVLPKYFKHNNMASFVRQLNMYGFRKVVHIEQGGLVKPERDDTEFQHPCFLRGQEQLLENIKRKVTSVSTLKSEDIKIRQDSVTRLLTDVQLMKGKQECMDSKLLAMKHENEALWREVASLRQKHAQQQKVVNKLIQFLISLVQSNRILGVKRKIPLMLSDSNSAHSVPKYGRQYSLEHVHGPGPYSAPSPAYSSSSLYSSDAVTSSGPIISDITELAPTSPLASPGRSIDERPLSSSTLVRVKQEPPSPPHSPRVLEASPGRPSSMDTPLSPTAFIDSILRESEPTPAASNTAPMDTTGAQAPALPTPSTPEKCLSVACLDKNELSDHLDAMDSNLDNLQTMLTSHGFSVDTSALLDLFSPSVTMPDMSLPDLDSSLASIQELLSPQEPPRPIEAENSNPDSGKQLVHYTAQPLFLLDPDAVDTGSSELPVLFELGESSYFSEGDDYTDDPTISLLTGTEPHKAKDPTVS
Nature of the test: decrease of HSF1-responsive luciferase luminescence – cell-based, NIH3T3, dose retest, confirmation (AID 2382).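 Note: NIH3T3 fibroblasts with HSF1-driven luciferase reporter stressed by proteasome inhibitor MG132; luminescence from HSF1-driven luciferase expression after 8 hours of MG132 stress.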 It counts as functional.

Test [7] in a line: Trypanosoma cruzi growth suppression in host cells – NIH3T3 host cells, beta-gal luminescence, confirmation (AID 2044).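 Note: intracellular parasites grown in NIH/3T3 mouse fibroblasts as host cells; luminescent beta-galactosidase reporter signal from transgenic T. cruzi replicating inside host cells; inhibitors lower the luminescence signal.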 It counts as functional, cell-based.
A short description of test [8]: NIH3T3 cell viability loss – ATP luminescence, mouse fibroblasts, counter-screen, dose response (AID 2010).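 Note: cells exposed to compound for about 90 hours before reading.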 The class given is functional, cell-based. (A counterscreen serves to expose hits that act by an unwanted route or on another target.)

Activity calls are given as the source filed them.

Cytochrome P450 2C9, sequence (P11712 whole entry): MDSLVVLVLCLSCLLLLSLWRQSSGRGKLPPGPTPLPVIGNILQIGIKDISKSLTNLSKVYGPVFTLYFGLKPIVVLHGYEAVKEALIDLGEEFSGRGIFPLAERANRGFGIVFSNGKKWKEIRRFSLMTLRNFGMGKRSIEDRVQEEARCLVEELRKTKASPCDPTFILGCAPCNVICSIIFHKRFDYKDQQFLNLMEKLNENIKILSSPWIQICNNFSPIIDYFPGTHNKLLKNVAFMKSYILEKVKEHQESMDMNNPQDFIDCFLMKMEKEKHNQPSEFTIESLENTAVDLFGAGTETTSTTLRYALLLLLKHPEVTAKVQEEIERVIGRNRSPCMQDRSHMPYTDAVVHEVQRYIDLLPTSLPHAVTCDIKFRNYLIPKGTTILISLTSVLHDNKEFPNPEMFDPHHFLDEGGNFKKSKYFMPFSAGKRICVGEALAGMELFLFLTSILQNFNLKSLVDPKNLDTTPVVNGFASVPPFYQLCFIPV
Cytochrome P450 3A4, sequence (P08684 whole entry): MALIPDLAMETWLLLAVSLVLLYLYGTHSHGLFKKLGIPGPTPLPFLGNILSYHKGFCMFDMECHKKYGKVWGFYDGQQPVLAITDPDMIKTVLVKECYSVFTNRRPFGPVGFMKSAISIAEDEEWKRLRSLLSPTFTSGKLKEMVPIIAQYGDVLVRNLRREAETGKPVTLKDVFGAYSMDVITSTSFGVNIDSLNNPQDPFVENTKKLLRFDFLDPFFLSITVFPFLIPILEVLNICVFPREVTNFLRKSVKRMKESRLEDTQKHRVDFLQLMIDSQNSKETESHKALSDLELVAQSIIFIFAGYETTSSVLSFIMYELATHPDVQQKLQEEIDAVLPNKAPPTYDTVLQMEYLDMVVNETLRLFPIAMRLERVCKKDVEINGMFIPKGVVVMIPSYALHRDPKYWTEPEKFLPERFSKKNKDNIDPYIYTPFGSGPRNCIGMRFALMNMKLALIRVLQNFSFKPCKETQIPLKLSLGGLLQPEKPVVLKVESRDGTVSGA
Cytochrome P450 2D6, sequence (P10635 whole entry): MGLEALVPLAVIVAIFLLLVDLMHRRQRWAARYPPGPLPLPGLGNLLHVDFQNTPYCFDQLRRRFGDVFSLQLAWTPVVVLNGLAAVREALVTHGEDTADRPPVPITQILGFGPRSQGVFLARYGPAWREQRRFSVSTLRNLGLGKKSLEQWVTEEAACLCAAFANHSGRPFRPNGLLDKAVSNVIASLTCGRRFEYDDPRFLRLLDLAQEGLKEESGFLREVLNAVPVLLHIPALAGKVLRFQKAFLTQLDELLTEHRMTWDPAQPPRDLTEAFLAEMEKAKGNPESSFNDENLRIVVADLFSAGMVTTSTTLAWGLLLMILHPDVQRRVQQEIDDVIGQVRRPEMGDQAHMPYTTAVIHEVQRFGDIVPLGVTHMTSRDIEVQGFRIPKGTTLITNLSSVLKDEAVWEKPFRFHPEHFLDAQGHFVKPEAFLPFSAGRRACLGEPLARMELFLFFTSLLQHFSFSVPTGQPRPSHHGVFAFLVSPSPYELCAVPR

On to `N#Cc1nc(Nc2cccc(Cl)c2)c2ncn(C3CCCC3)c2n1`, for which the IC50 in [1] was > 47.1 µM (inactive). Further, the EC50 in test [2] was > 53 µM (inactive).
For `Cc1cc(OC(C)C(=O)NNC(=O)Nc2ccc(F)cc2F)cc(C)c1Cl` (stereo not given), the EC50 in “cells [3]” and in the test “cells [4]” was > 350 µM (not active) throughout.
Turning to `CC(C)(C)c1cc(C(=O)N2CCN(c3ncccn3)CC2)ccn1`, the EC50 in “cells [3]” and in the test “cells [4]” was > 350 µM (not active) throughout.
With `COc1ccccc1OC[C@H](O)COC(N)=O`, the AC50 at Cytochrome P450 1A2 was 10 µM (inconclusive).
For the compound `Cc1cc(C)c(S(=O)(=O)Nc2cccc(C(F)(F)F)c2)c(C)c1`, the AC50 at Cytochrome P450 1A2 was 39.8 µM (inconclusive).
On to `C#CCOCCOCCOCCNc1nc(N2CCN(C(=O)C([C@@H](C)O)n3cc([C@@H](N)CCCCN)nn3)CC2)nc(N2CCN(C(=O)[C@H](CCCCN)n3cc([C@@H](N)CC(N)=O)nn3)CC2)n1` (stereo not given in full), for which the IC50 in test [5] is > 20 µM (inactive).
As for `O=C(CSc1nc(O)c2ccccc2n1)Nc1ccc(Br)cc1`, the EC50 in “cells [3]” and in the test “cells [4]” was > 350 µM (not active) throughout.
Regarding `CCOc1ccccc1N(CC(=O)N/N=C/c1cc(Br)ccc1OC)S(C)(=O)=O`, the EC50 in the test “cells [3]” and in the test “cells [4]” was > 350 µM (not active) in each case.
Regarding `O=C(c1ccncc1)N1CCC[C@@]2(CCN(c3ccccn3)C2)C1`, the AC50 at Cytochrome P450 1A2 and at Cytochrome P450 2C9 was 20 µM (inconclusive) throughout.
Turning to `O=C(CN1CCCCC1)Nc1cccc([N+](=O)[O-])c1`, the AC50 on Cytochrome P450 2C19 was 14.1 µM (inconclusive); on Cytochrome P450 2D6, 15.8 µM (inconclusive); at Cytochrome P450 1A2, 39.8 µM (inconclusive).
As to `COc1ccc(C2C3=C(O)CC(C)(C)CC3=Nc3c2c(=O)n(C)c(=O)n3C)cc1OC` (stereo not given), in test [1], the IC50 is > 47.1 µM (inactive). In addition, in [2], the EC50 was > 53 µM (inactive).
Consider `CN(C)CCN(C)CCc1ccc(Cl)c(Cl)c1`, for which, at Cytochrome P450 1A2, the AC50 is 39.8 µM (inconclusive).
In the case of `Cc1ccc(OCc2cc(C(=O)N3CCN(CC(=O)NC(C)C)CC3)no2)cn1`, the IC50 in [1] was > 47.1 µM (inactive). Besides, the EC50 in test [2] was > 53 µM (inactive).
For `NC(=O)COC(=O)c1ccc(-c2ccc(O)cc2)cc1` the same measures were > 47.1 µM (inactive) and > 53 µM (inactive).
As for `Cc1cccc(N2CCc3c2nc2ccccc2c3N)c1`, in test [5], the IC50 is > 20 µM (inactive).
For the compound `COC(=O)[C@@]1(Cc2ccc(OC)cc2)[C@@H]2[C@@H](CC(=O)[C@H]2CC(=O)C(=O)N(C)C)CN1C(=O)c1ccccc1`, the AC50 on Cytochrome P450 1A2 is 2 µM (inconclusive); on Cytochrome P450 2C9, 39.8 µM (inconclusive).
Turning to `Cc1ccc(S(=O)(=O)N2CCN(C(=O)CN3CCN(C)CC3)C2)cc1`, the figures for the AC50 on Cytochrome P450 2C19 and at Cytochrome P450 1A2 were 28.2 µM (inconclusive) and 15.8 µM (inconclusive), respectively.
`Sc1nnc(CSCc2ccccc2Cl)n1-c1ccccc1`: the AC50 was 22.4 µM (inconclusive) at Cytochrome P450 1A2 and 5.01 µM (inconclusive) on Cytochrome P450 2C9.
As for `O=C(O)CCC/C=C\C[C@@H]1CO[C@H](C(F)(F)F)O[C@@H]1c1ccccc1O`, the AC50 on Cytochrome P450 2C19 was 10 µM (inconclusive); on Cytochrome P450 1A2, 39.8 µM (inconclusive); at Cytochrome P450 3A4 it was 15.8 µM (inconclusive); on Cytochrome P450 2C9, 20 µM (inconclusive).
Consider `CS(=O)(=O)N1CCN(c2c(Cl)cccc2[N+](=O)[O-])CC1`, for which the AC50 is 28.2 µM (inconclusive) at Cytochrome P450 1A2 and 0.251 µM (inconclusive) at Cytochrome P450 2C9.
Consider `N#Cc1cccc(NCC(=O)Nc2ccc3c(c2)OCCO3)c1`, for which the IC50 in test [1] was > 47.1 µM (inactive). The EC50 in test [2] was > 53 µM (inactive).
For the compound `O=C(O)[C@H]1C[C@@H](CP(=O)(O)O)CCN1`, the AC50 on Cytochrome P450 1A2 is 25.1 µM (inconclusive).
Regarding `Cc1csc(NC(=O)Cc2ccc(Br)cc2)n1`, in test [1], the IC50 is > 47.1 µM (inactive). The EC50 in test [2] is > 53 µM (inactive).
For `O=C(CSc1nnc(-c2cccc(S(=O)(=O)N3CCOCC3)c2)n1C1CCCCCC1)NCc1ccccc1`, the AC50 on Cytochrome P450 2C19 was 31.6 µM (inconclusive); at Cytochrome P450 2D6, 7.94 µM (inconclusive); on Cytochrome P450 1A2 it was 39.8 µM (inconclusive); on Cytochrome P450 2C9 it was 14.1 µM (inconclusive).
Take `Cc1ccc(CNc2nc(N)c([N+](=O)[O-])c(Nc3ccc(F)cc3)n2)cc1`: the AC50 on Cytochrome P450 1A2 is 1.12 µM (inconclusive); at Cytochrome P450 3A4 it was 2 µM (inconclusive); on Cytochrome P450 2C9 it was 3.55 µM (inconclusive).
As to `O=C(NCCc1cccnc1)C1CCC(=O)N(Cc2ccc(Cl)cc2)C1` (stereo not given), the IC50 in [1] is > 47.1 µM (inactive). Moreover, the EC50 in [2] was > 53 µM (inactive).
Turning to `CCOC(=O)c1cc(C)sc1NC(=O)CCC(=O)O`, the IC50 in [1] was > 47.1 µM (inactive). Also, in [2], the EC50 was > 53 µM (inactive).
Taken in the same sequence, the figures for `Cc1noc(C)c1NC(=O)Nc1ccc2c(c1)C(=O)N([C@H](C)CO)C[C@H](C)[C@@H](CN(C)S(=O)(=O)c1ccc(F)cc1)O2` were > 47.1 µM (inactive) and > 53 µM (inactive).
Taken in the same sequence, the figures for `CCOc1ccccc1C(=O)OCC(=O)NCC1CCCO1` (stereo not given) were > 47.1 µM (inactive) and > 53 µM (inactive).
For `O=C(O)c1cc(-c2ccccc2)nc(-c2ccccc2)c1` the same measures were > 47.1 µM (inactive) and > 53 µM (inactive).
Regarding `Cc1ccc(C)n1NC(=O)c1ccccc1O`, the EC50 in test [6] is > 195 µM (not active); in test [2], > 53 µM (inactive). Further, the IC50 in [1] was > 47.1 µM (inactive).
On to `CCNc1ncc2nc(-c3ccc(OC)cc3)c(=O)n(CCOC)c2n1`, for which the AC50 is 1.26 µM (inconclusive) at Cytochrome P450 1A2 and 15.8 µM (inconclusive) at Cytochrome P450 3A4.
On to `COc1ccc(C2=Nc3ccccc3C2(O)CCN2C(=O)c3ccccc3C2=O)cc1` (stereo not given), for which the IC50 in [1] is > 47.1 µM (inactive). In addition, the EC50 in test [2] was > 53 µM (inactive).
For the compound `NCC12CC3CC(C1)CC(c1ccc(Cl)cc1)(C3)C2`, the EC50 in test [7] is 2.19 µM (active); in test [8], > 60 µM (inconclusive). Further, the IC50 in test [5] was > 20 µM (inactive).
